The values below come from US20250170106A1, “USE OF SU3327 IN PREPARATION OF MEDICAMENT FOR ENHANCING EFFICACY OF POLYMYXIN AGAINST BACTERIAL INFECTION” (XIAMEN HANLIXIN PHARMACEUTICAL CO., LTD., priority 2022, published 2025).

Test [1] concerns JNK. The following applies: substrate-competitive JNK inhibitor; cited from earlier work.
Test [2] deals with p38α (Homo sapiens, UniProt Q16539). The following applies: cited from earlier work.
In test [3] the test system is JNK and JIP. The note with it: read-out: IC50 (protein interaction between JNK and JIP); cited from earlier work.
Test [4] deals with K. pneumoniae 1202. As to the kind of experiment: In vitro bacterial growth (bactericidal) curve. In kind it is cell-based, Klebsiella pneumoniae. The following applies: continuous treatment for 24 h, Polymyxin E 0.25 μg/mL, SU3327 10 μg/mL, alone or combined. As for the experimental part: (§1) 6.0 g powdered beef extract, 1.5 g soluble starch, 17.5 g acid hydrolysate of casein, and 17.0 g agar were weighed, to which 900 mL distilled water was added, with the pH adjusted to 7.3, and the volume to 1000 mL. The mixture was subject to autoclave at 121° C. for 15 minutes, and then cooled to 50° C., poured into a sterile plate, and dried for later use.
(§2) Following culturing of K. pneumoniae 1202 and K. pneumoniae 1202-45-5 in BHI broth for 6-8 hours, the bacteria were diluted to a concentration of 10^6 colony count using a turbidimeter.
(§3) For K. pneumoniae 1202, drug treatment concentrations were set as follows: Polymyxin E (0.25 μg/mL), SU3327 (10 μg/mL), SU3327 (10 μg/mL)+Polymyxin E (0.25 μg/mL); the bacteria in control group were treated with a solvent, 0.1% DMSO. For K. pneumoniae 1202-45-5, drug treatment concentrations were set as follows: Polymyxin E (1 μg/mL), SU3327 (20 μg/mL), SU3327 (20 μg/mL)+Polymyxin E (1 μg/mL). 100 μL of a bacterial solution was applied on an agar plate at 1 h, 3 h, 6 h, 12 h and 24 h post drug treatment, respectively, and cultured for at least 16 h for a colony count.

The test system of test [5] is K. pneumoniae 1202-45-5. As to the kind of experiment: In vitro bacterial growth (bactericidal) curve. In kind it is cell-based, Klebsiella pneumoniae. The note with it: continuous treatment for 24 h, Polymyxin E 1 μg/mL, SU3327 20 μg/mL, alone or combined. The protocol:
as §1, §2, §3

The subject of test [6] is Akt. The following applies: cited from earlier work.
For test [7], the system named is Staphylococcus Aureus USA300 (S. aureus USA300). As to the kind of experiment: MIC / checkerboard assay. The following applies: for MIC after use in combination: Polymyxin E + SU3327 in combination, checkerboard; for MIC: drug alone. In kind it is cell-based. From the text: (§4) The strains used in the tests, the strain Escherichia coli ATCC 25922 (E. coli 25922) and the strain Staphylococcus aureus ATCC 29213 (S. aureus 29213), were purchased from China Veterinary Culture Collection Center. Methicillin Resistant Staphylococcus Aureus USA300 (ATCC BAA-1717) was purchased from American Type Culture Collection. The strains used in the other experiments, the strains Escherichia coli B2 (E. coli B2), Escherichia coli GZP08-8 (E. coli GZP08-8), Klebsiella pneumoniae 1202 (K. pneumoniae 1202), Klebsiella pneumoniae 1202-45-5 (K. pneumoniae 1202-45-5), Salmonella 1-5 (Salmonella 1-5), and Shigella Y (Shigella Y) were all from National Center for Veterinary Drug Safety Evaluation of China Agricultural University, with Escherichia coli B2 (E. coli B2), Escherichia coli GZP08-8 (E. coli GZP08-8), Klebsiella pneumoniae 1202-45-5 (K. pneumoniae 1202-45-5), and Salmonella 1-5 (Salmonella 1-5) as polymyxin resistant strains containing MCR-1. Klebsiella pneumoniae 1202 (K. pneumoniae 1202) and Shigella Y (Shigella Y) were strains clinically sensitive to colistin.
(§5) The MIC of SU3327 administered alone was detected with dilution by factors. Subsequently, tests were performed with SU3327 alone, Polymyxin E (Colistin) alone, and in combination, respectively, in sterile, 96-well microplates according to checkerboard assays for the joint inhibitory activities against the above-mentioned strains, and further Fractional Inhibitory Concentration Index (FICI) was calculated. FICI of SU3327 and Polymyxin E=MIC (Polymyxin E in combination)/MIC (Polymyxin E)+MIC (SU3327 in combination)/MIC (SU3327 alone). If FICI≤0.5, synergy was identified; if 0.5<FICI≤1, an additive effect was identified; and if […], an irrelevant effect was identified.

The subject of test [8] is Klebsiella pneumoniae 1202 (K. pneumoniae 1202). As to the kind of experiment: MIC / checkerboard assay. In kind it is cell-based. The note with it: for MIC after use in combination: Polymyxin E + SU3327 in combination, checkerboard; for MIC: drug alone.
Text: as §4, §5

The subject of test [9] is Staphylococcus aureus strain ATCC 29213 (S. aureus 29213). As to the kind of experiment: MIC / checkerboard assay. In kind it is cell-based. The following applies: for MIC after use in combination: Polymyxin E + SU3327 in combination, checkerboard; for MIC: drug alone.
Text: as §4, §5

Test [10] deals with Shigella Y. As to the kind of experiment: MIC / checkerboard assay. In kind it is cell-based. The note with it: for MIC after use in combination: Polymyxin E + SU3327 in combination, checkerboard.
Text: as §4, §5

Test [11] has as its system Klebsiella pneumoniae 1202-45-5 (K. pneumoniae 1202-45-5). As to the kind of experiment: MIC / checkerboard assay. In kind it is cell-based. The following applies: for MIC after use in combination: Polymyxin E + SU3327 in combination, checkerboard; for MIC: drug alone.
Text: as §4, §5

For test [12], the system named is Salmonella 1-5. As to the kind of experiment: MIC / checkerboard assay. The note with it: for MIC after use in combination: Polymyxin E + SU3327 in combination, checkerboard. In kind it is cell-based.
Text: as §4, §5

For test [13], the system named is Escherichia coli strain ATCC 25922 (E. coli 25922). As to the kind of experiment: MIC / checkerboard assay. In kind it is cell-based. The note with it: for MIC after use in combination: Polymyxin E + SU3327 in combination, checkerboard; for MIC: drug alone.
Text: as §4, §5

Test [14] deals with Escherichia coli GZP08-8 (E. coli GZP08-8). As to the kind of experiment: MIC / checkerboard assay. In kind it is cell-based. The note with it: for MIC after use in combination: Polymyxin E + SU3327 in combination, checkerboard; for MIC: drug alone.
Text: as §4, §5

Test [15] has as its system Escherichia coli B2 (E. coli B2) containing MCR-1. As to the kind of experiment: MIC / checkerboard assay. In kind it is cell-based. The following applies: for MIC after use in combination: Polymyxin E + SU3327 in combination, checkerboard; for MIC: drug alone.
Text: as §4, §5

The test system of test [16] is K. pneumoniae 1202-45-5. As to the kind of experiment: Thigh infection model of neutropenic BALB/c mice infected with drug resistant bacteria. In kind it is in vivo. The following applies: 10 mg/kg body weight each drug, intraperitoneal, 24 hour post infection; for bacteria loading in the thigh of the mice: twice 8 h apart, K. pneumoniae 1202-45-5. As for the experimental part: In order to avoid the influence of mice's own immunity on the experiments, all mice were administered in advance with cyclophosphamide twice, four days and one day before infection, respectively, 100 mg/kg intraperitoneal injection each time, resulting in neutropenia and immune deficiency in the mice. 24 female BALB/c mice (weighing about 20 g) aged 6-8 weeks old were prepared. K. pneumoniae 1202-45-5 in logarithmic phase was re-suspended with a PBS buffer to prepare a suspension at the concentration of 1×10^7 CFU/mL; in the mice, the total amount of bacteria injected into the thigh of each mouse was 1×10^6 CFUs in the end. Then they were randomly divided into model control group (solvent treatment group), Polymyxin E treatment group (10 mg/kg body weight), SU3327 treatment group (10 mg/kg body weight), and combined treatment group of SU3327 (10 mg/kg body weight)+Polymyxin E (10 mg/kg body weight) (6 mice in each group). The treatments are detailed as follows:
Solvent control treatment group: 0.1 mL of the suspension of K. pneumoniae 1202-45-5 was intramuscularly injected into a mouse in the thigh on the right side of its abdominal cavity; one hour later, the mouse was intraperitoneally injected with 200 μL of a PBS buffer.
Polymyxin E treatment group: 0.1 mL of the suspension of K. pneumoniae 1202-45-5 was intramuscularly injected into a mouse in the thigh on the right side of its abdominal cavity; one hour later, the mouse was intraperitoneally injected with 200 μL of a solution of drug, Polymyxin E (1 mg/mL); the final dose was 10 mg/kg body weight;
SU3327 treatment group: 0.1 mL of the suspension of K. pneumoniae 1202-45-5 was intramuscularly injected into a mouse in the thigh on the right side of its abdominal cavity; one hour later, the mouse was intraperitoneally injected with 200 μL of a solution of drug, SU3327 (1 mg/mL); the final dose was 10 mg/kg body weight; […]

Chain of p38α (Q16539 whole entry): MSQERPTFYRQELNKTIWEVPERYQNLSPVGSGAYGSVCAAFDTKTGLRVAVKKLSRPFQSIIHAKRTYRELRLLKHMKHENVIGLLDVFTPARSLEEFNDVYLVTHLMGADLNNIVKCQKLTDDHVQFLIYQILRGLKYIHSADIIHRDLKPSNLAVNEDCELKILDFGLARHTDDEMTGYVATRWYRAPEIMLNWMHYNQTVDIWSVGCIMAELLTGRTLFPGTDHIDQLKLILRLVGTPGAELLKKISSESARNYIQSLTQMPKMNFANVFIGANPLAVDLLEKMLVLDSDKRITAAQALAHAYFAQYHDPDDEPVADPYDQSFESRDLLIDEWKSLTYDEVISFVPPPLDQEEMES

What is called IC50 is the point on the concentration scale where inhibition reaches its midpoint. For orientation: MIC means the lowest concentration found to suppress growth. `Nc1nnc(Sc2ncc([N+](=O)[O-])s2)s1` [SU3327]: the IC50 in [1] was 0.7 µM; in [3] it was 0.239 µM. The “activity for p38α kinase” value in test [2] was “low activity”. Besides, the bacterial colony counts in test [4] is 8.35 Log 10 CFU/mL; in [5], 6.65 Log 10 CFU/mL. In addition, in test [6], the “activity for Akt kinase” value is recorded as “low activity”. Further, the “MIC after use in combination” value in [7] stood at 1.25 µg/mL; in test [8], 2.5 µg/mL; in test [9], 2.5 µg/mL; in [10], 2.5 µg/mL; in test [11], 5 µg/mL; in test [12], 2.5 µg/mL. Also, the “MIC after use in combination” value in test [13] amounted to 5 µg/mL; in test [14], 2.5 µg/mL; in test [15] it was 2.5 µg/mL. The MIC in test [7] is 5 µg/mL; in [8], 20 µg/mL; in [9] it was 5 µg/mL; in [10] (drug alone), 5 µg/mL; in test [11], 20 µg/mL; in [12] (drug alone) it was 20 µg/mL. In addition, the values for the MIC in [13], in test [14] and in [15] were 10 µg/mL, 10 µg/mL and 20 µg/mL, respectively. Further, the “bacteria loading in the thigh of the mice” value in test [16] is on record as 6.55 Log 10 CFU/mL.
With Polymyxin E, the bacterial colony counts in test [4] was 8.9 Log 10 CFU/mL; in [5], 9.3 Log 10 CFU/mL. Moreover, the “MIC after use in combination” value came to 32 µg/mL in [7]; 0.0625 µg/mL in test [8]; 64 µg/mL in test [9]; 0.032 µg/mL in test [10]; 0.25 µg/mL in test [11]; 1 µg/mL in test [12]. Besides, the “MIC after use in combination” value in test [13] was 0.0625 µg/mL; in [14], 0.25 µg/mL; in test [15], 0.5 µg/mL. The MIC entry is “more than 128 μg/mL” in test [7]; 1 µg/mL in [8]; “more than 128 μg/mL” in test [9]; 16 µg/mL in test [11]; 0.125 µg/mL in test [13]; 16 µg/mL in test [14]. Also, the MIC in [15] came to 8 µg/mL. The “bacteria loading in the thigh of the mice” value in [16] was determined as 6.82 Log 10 CFU/mL. The “bacteria loading in the thigh compared with solvent control group” value in [16] is on record as “not significantly different”.
